The source of these data is patent US4665056A, “Dihydroorotic acid derivative and processes for preparing the same” (Tanabe Seiyaku Co., Ltd., priority 1984, dated 1987).

The structures appear in SMILES notation.

In data set [1] the test system is male STD/ddY mice. Kind of data set: Antagonistic effect on reserpine-induced hypothermia, oral administration. It counts as in vivo. The note with it: TRH tartrate taken as 1, parallel line assay method. On the procedure:
(§1) The pharmacological activities of test compounds estimated by oral administration.
(§2) A test compound dissolved in distilled water was orally administered to the mice, and the rectal temperature was measured 30, 60, 120, 180 and 300 minutes after the administration of the test compound. The increase in the body temperature of the medicated group of mice was compared with that of the control group of mice which received distilled water instead of the test compound solution.

The subject of data set [2] is male STD/ddY mice. The experiment in a line: Increasing effect on spontaneous locomotor activity, oral administration. It counts as in vivo. The note with it: activity measured for 3 hours. On the procedure: as §1
(§3) Male STD/ddY mice were individually placed in Ambulometer (i.e., an apparatus for measuring spontaneous locomotor activity; manufactured by OHARA IKA Co.) for 30 minutes to acclimatize to the apparatus. Thereafter, a test compound dissolved in distilled water was orally administered to the mice and, immediately after administration of the test compound, the spontaneous locomotor activity was measured for 3 hours. Distilled water was administered to the control group of mice instead of the test compound solution.

The test system of data set [3] is male STD/ddY mice. The experiment in a line: Antagonistic effect on pentobarbital anesthesia, oral administration. It counts as in vivo. Conditions: oral administration 15 min before pentobarbital sodium 55 mg/kg i.p. On the procedure:
as §1
A test compound dissolved in distilled water was orally administered to male STD/ddY mice. Fifteen minutes after the administration of the test compound, pentobarbital sodium was intraperitoneally administered to the mice at a dose of 55 mg/kg. The duration of anesthesia was measured as the time from the disappearance of righting reflex to the recovery thereof. Distilled water was administered to the control group of mice instead of the test compound solution.

In data set [4] the test system is male STD/ddY mice. The experiment in a line: Antagonistic effect on reserpine-induced hypothermia, intraperitoneal administration. Type of data set: in vivo. Conditions: TRH taken as 1, parallel line assay method. On the procedure:
as §2
(§4) The pharmacological activities of test compounds estimated by parenteral administration.
(§5) The experiments were carried out in the same manner as described in Experiment 1 except that a test compound dissolved in a physiological saline solution was administered intraperitoneally to mice and, in estimating the increasing effect on spontaneous locomotor activity, said spontaneous locomotor activity was measured for 60 minutes immediately after administration of the test compound.

In data set [5] the test system is male STD/ddY mice. The experiment in a line: Increasing effect on spontaneous locomotor activity, intraperitoneal administration. The note with it: measured for 60 minutes, TRH taken as 1. It counts as in vivo. The method, then: as §3, §4, §5
The subject of data set [6] is male STD/ddY mice. The experiment in a line: Antagonistic effect on pentobarbital anesthesia, intravenous administration. Type of data set: in vivo. Conditions: intravenous administration 10 min after pentobarbital sodium 55 mg/kg i.p., TRH taken as 1. On the procedure: as §4
Pentobarbital sodium was intraperitoneally administered to male STD/ddY mice at a dose of 55 mg/kg. Ten minutes after the administration of pentobarbital sodium, a test compound dissolved in a physiological saline solution was intravenously administered to the mice which had lost the righting reflex. The duration of anesthesia was measured as the time from the end of administration of the test compound until the righting reflex regained. A physiological saline solution was administered to the control group of mice instead of the test compound solution.

In data set [7] the test system is male STD/ddY mice. The experiment in a line: Potentiating effect on action of Dopamine (L-Dopa in reserpinized mice). It counts as in vivo. Conditions: intraperitoneal administration, reserpine 3 mg/kg s.c. and L-Dopa 200 mg/kg i.p., TRH taken as 1. On the procedure:
as §4
Reserpine was subcutaneously administered to male STD/ddY mice at a dose of 3 mg/kg, and about 16 to 20 hours later, L-Dopa was intraperitoneally administered to the mice at a dose of 200 mg/kg. Thirty minutes after administration of L-Dopa, a test compound dissolved in a physiological saline solution was administered intraperitoneally to the mice (when TRH was used as the test compound, it was administered 45 minutes after administration of L-Dopa). Spontaneous locomotor activity was measured by ANIMEX (i.e., an apparatus for mesuring spontaneous locomotor activity; manufactured by FERAD Co.) for 15 minutes starting from one hour after administration of L-Dopa. A physiological saline solution was administered to the control group of mice instead of the test compound solution.

Data set [8] deals with male JCL:SD rats. Kind of data set: TSH-releasing activity (side effect), serum TSH by radioimmunoassay. It counts as in vivo. The note with it: intravenous administration, serum TSH 15 min after, TRH taken as 1, parallel line assay method. On the procedure: A test compound dissolved in a 0.1% BSA (bovine serum albumin)-containing physiological saline solution was intravenously administered to male JCL:SD rats. Fifteen minutes after the administration, blood was taken from the abdominal aorta under anesthesia. Serum TSH levels were determined by the double-antibody radioimmunoassay method (Midgley et al., Endocrinology., 79, 10 (1966)). The BSA-containing physiological saline solution was administered to the control group of rats instead of the test compound solution.

The test system of data set [9] is male STD/ddY mice. The experiment in a line: Acute toxicity (LD50), intravenous. Type of data set: in vivo. Conditions: mortality 24 hours after administration. On the procedure: A test compound was intravenously administered to male STD/ddY mice and the acute toxicity (LD50) thereof was determined from mortality of mice 24 hours after administration of the test compound.

Data set [10] has as its system male STD/ddY mice. The note with it: published data (Brain Research Reviews 4, 389 (1982)); cited from earlier work.
Data set [11] relates to male JCL:SD rats. The note with it: TRH taken as 1; cited from earlier work.

As for `CN1C(=O)C[C@@H](C(=O)N[C@@H](Cc2c[nH]cn2)C(=O)N2CCC[C@H]2C(N)=O)NC1=O` [The compound of the present invention, (1-methyl-L-4,5-dihydroorotyl)-L-histidyl-L-prolinamide], the “Therapeutic activity by oral administration” value was “excellent therapeutic activity even by oral administration”. Moreover, the “Potency ratio to TRH tartrate, antagonistic effect on reserpine-induced hypothermia” value (“Potency ratio to TRH tartrate” for short) in data set [1] was found to be 91.3. In addition, the “Minimum effective dose, increasing effect on spontaneous locomotor activity” value in data set [2] came to 10 mg/kg. In addition, in data set [3], the “Minimum effective dose, antagonistic effect on pentobarbital anesthesia” value is 1 mg/kg. In addition, the “Potency ratio to TRH, antagonistic effect on reserpine-induced hypothermia” value in data set [4] was 31.4. Moreover, the “Potency ratio to TRH, increasing effect on spontaneous locomotor activity” value (from here on “Potency ratio to TRH, increasing effect”) in [5] is 27.4. Also, the “Potency ratio to TRH, antagonistic effect on pentobarbital anesthesia” value (“Potency ratio … on pentobarbital anesthesia” below) in [6] was found to be 2.7. Also, the “Potency ratio to TRH, potentiating effect on action of Dopamine” value (shortened to “Potency ratio to TRH … of Dopamine”) in data set [7] is given as 18.5. In addition, the “Potency ratio to TRH, TSH-releasing activity” value in [8] was 1/30. Further, the LD50 in data set [9] is reported as 1589 mg/kg, i.v.
As to `NC(=O)[C@@H]1CCCN1C(=O)[C@H](Cc1c[nH]cn1)NC(=O)c1cc(=O)[nH]c(=O)[nH]1` [No. 2, Orotyl-L-histidyl-L-prolinamide], the “Potency ratio to TRH tartrate” value in data set [1] is 13.0. The “Potency ratio to TRH, antagonistic effect on reserpine-induced hypothermia” value in [4] was 7.4. Also, the “Potency ratio to TRH, increasing effect” value in [5] amounted to 3.8. For the same molecule, the “Potency ratio … on pentobarbital anesthesia” value in [6] is reported as 1.9. In addition, the “Potency ratio to TRH … of Dopamine” value in [7] worked out at 2.6. In addition, the “LD50 (published data)” value in data set [10] is reported as 1200 mg/kg, i.v.
For the molecule `NC(=O)[C@@H]1CCCN1C(=O)[C@H](Cc1cnc[nH]1)NC(=O)[C@@H]1CCC(=O)N1` [TRH, L-pyroglutamyl-L-histidyl-L-prolinamide], the “Therapeutic activity by oral administration” value is “no substantial therapeutic effects”. In addition, the “LD50 (published data)” value in data set [10] was 1450 mg/kg, i.v.
Take `NC(=O)[C@@H]1CCCN1C(=O)[C@H](Cc1c[nH]cn1)NC(=O)[C@@H]1CCC(=O)O1` [No. 1, (2,3,4,5-tetrahydro-2-oxo-L-5-furancarbonyl)-L-histidyl-L-prolinamide]: in data set [1], the “Potency ratio to TRH tartrate” value was found to be 3.4. Besides, the “Potency ratio to TRH, antagonistic effect on reserpine-induced hypothermia” value in [4] is listed as 5.7. In addition, in [5], the “Potency ratio to TRH, increasing effect” value came out at 3.5. Also, the “Potency ratio … on pentobarbital anesthesia” value in data set [6] worked out at 1.3. In addition, in data set [7], the “Potency ratio to TRH … of Dopamine” value amounted to 2.5. Moreover, the “Potency ratio to TRH, TSH-releasing activity (published data)” value in data set [11] is 1/40.
Consider `NC(=O)[C@@H]1CCCN1C(=O)[C@H](Cc1cnc[nH]1)NC(=O)[C@@H]1CCC(=O)N1.O=C(O)C(O)C(O)C(=O)O` [TRH tartrate], for which the “Minimum effective dose, increasing effect on spontaneous locomotor activity” value in data set [2] is reported as more than 100 mg/kg. Moreover, the “Minimum effective dose, antagonistic effect on pentobarbital anesthesia” value in data set [3] was more than 100 mg/kg.
